Results on six molecules are retold here after patent US9096686B2, “E518A/K mutant smoothened and methods of using the same” (Genentech, Inc., priority 2010, dated 2015).

Entries after “also recorded” stand apart in the source; their conditions may differ. Where two headings read alike, the source gives them in different places.

Data set [1] has as its target T1, SMO-D473H (Homo sapiens, UniProt Q99835, D473H).
T1 construct: expressed in transfected cells; host or cells: C3H10T1/2 mouse fibroblasts (ATCC CCL-226), pRK5 vector, CMV promoter
Description: Gli-luciferase reporter assay, SMO-D473H overexpression in C3H10T½ cells. The class given is cell-based. As for the experimental part: (§1) Circles mark the A-, B- and C-rings of some compounds as indicated for HhAntag.
(§2) Gli-luciferase reporter assays. Gli-luciferase reporter assays were performed as described (Rudin, C. M. et al. (2009) N. Engl. J. Med. 361:1173-1178) with the following modifications; C3H10T½ cells (ATCC, CCL-226) were seeded into six-well plates at 1.85×10^5 cells/well and values shown are the mean of four separate experiments ±1 standard deviation (SD).
(§3) These compounds were either identified in high-throughput screens (both in house and by others) or were generated by hit-to-lead optimization of screening hits using traditional medicinal chemistry methods. C3H10T½ cells were co-transfected with wild type or mutant SMO expression vectors together with a Gli-luciferase reporter construct (Murone M. et al. (1999) Curr. Biol. 9(2):76-84), and pathway activation was measured in the presence or absence of 1 μM compound.
A general note: In a reporter assay the amount or activity of a reporter protein is the signal.

Data set [2] addresses T2, SMO-E518K (Homo sapiens, UniProt Q99835, E518K).
T2 construct: expressed in transfected cells; host or cells: C3H10T1/2 mouse fibroblasts (ATCC CCL-226), pRK5 vector, CMV promoter
Description: Gli-luciferase reporter assay, SMO-E518K overexpression in C3H10T½ cells. The data set is classed as cell-based. As for the experimental part:
(§4) Regions targeted by alanine scan mutagenesis are indicated in light grey. […] Values were normalized to maximum activity levels and represent means±SDs.
as §1, §2, §3

Data set [3] in a line: Metabolism by human hepatocytes. The data set is classed as in vitro ADME. The conditions noted are these: unpublished observation.
Data set [4] has as its target T3, SMO-WT (Homo sapiens, UniProt Q99835).
T3 construct: expressed in transfected cells; host or cells: C3H10T1/2 mouse fibroblasts (ATCC CCL-226), pRK5 vector, CMV promoter
Description: Gli-luciferase reporter assay, SMO-WT overexpression in C3H10T½ cells. The class given is cell-based. The conditions noted are these: 1 μM compound. As for the experimental part:
as §1, §2, §3

Data set [5] addresses T4, SMO-E518A (Homo sapiens, UniProt Q99835, E518A).
T4 construct: expressed in transfected cells; host or cells: C3H10T1/2 mouse fibroblasts (ATCC CCL-226), pRK5 vector, CMV promoter
Description: Gli-luciferase reporter assay, SMO-E518A in C3H10T½ cells. The class given is cell-based. The conditions noted are these: dose response; signaling activity despite 1 μM. As to the method:
as §4, §2

Data set [6] has as its system medulloblastoma. The conditions noted are these: medulloblastoma patient, widespread metastatic disease; cited from earlier work.
Data set [7] can be described thus: Plasma pharmacokinetics after single oral dose in mice. The class given is in vivo.
Source text: as §1

T2 sequence (Q99835 28-787 E518K): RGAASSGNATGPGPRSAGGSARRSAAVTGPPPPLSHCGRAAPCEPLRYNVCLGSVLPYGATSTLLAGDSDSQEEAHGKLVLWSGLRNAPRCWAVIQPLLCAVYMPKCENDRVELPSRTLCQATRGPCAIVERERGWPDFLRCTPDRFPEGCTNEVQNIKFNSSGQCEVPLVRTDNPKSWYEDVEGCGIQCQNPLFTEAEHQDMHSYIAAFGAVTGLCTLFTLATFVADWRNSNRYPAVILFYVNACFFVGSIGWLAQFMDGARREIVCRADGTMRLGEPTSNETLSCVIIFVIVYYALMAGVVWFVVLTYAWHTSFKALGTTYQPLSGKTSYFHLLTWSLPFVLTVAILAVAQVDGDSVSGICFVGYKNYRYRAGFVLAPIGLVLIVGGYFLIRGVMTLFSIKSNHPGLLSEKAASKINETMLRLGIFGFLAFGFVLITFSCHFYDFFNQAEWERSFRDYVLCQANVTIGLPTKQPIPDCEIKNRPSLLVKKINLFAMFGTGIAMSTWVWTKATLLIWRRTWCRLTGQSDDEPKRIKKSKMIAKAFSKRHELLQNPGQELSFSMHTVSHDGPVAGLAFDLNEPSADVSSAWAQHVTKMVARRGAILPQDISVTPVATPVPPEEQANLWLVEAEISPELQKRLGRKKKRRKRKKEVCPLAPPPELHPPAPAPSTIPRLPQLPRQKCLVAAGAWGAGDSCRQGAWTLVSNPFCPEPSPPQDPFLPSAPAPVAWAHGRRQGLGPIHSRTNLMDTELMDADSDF
T1 sequence (Q99835 28-787 D473H): as the sequence (Q99835 28-787 E518K) above, with D446H, K491E counted along it
T4 sequence (Q99835 28-787 E518A): as the sequence (Q99835 28-787 E518K) above, with K491A counted along it
T3 sequence (Q99835 28-787): as the sequence (Q99835 28-787 E518K) above, with K491E counted along it

As for `Cc1nn(-c2ccccc2)c(C)c1/C=N/N1CCN(Cc2ccccc2)CC1` [SANT-1], the “potency against SMO-D473H (inhibition of Gli-luciferase activity)” value in data set [1] (1 μM compound, C3H10T½ cells) is “partially resistant”. Also, the “potency against SMO-E518K (inhibition of Gli-luciferase activity)” value in data set [2] (1 μM compound, C3H10T½ cells) is reported as “sensitive”.
Take HhAntag: the “metabolism by human hepatocytes” value in data set [3] is recorded as “rapidly metabolized”. Moreover, in data set [1] (1 μM compound, C3H10T½ cells), the “potency against SMO-D473H (inhibition of Gli-luciferase activity)” value was “essentially equipotent against all SMO alleles”. For the same molecule, the “potency against SMO-E518K (inhibition of Gli-luciferase activity)” value in data set [2] (1 μM compound, C3H10T½ cells) is reported as “essentially equipotent against all SMO alleles”. Also, the “activity against wild type SMO (inhibition of Gli-luciferase activity)” value in data set [4] was “essentially equipotent against all SMO alleles”.
With `CC1=C2C[C@H]3[C@@H](CC=C4C[C@@H](O)CC[C@@]43C)[C@@H]2CC[C@]12O[C@@H]1C[C@H](C)CN[C@H]1[C@H]2C` [cyclopamine], the “potency against SMO-D473H (inhibition of Gli-luciferase activity)” value in data set [1] is reported as “partially resistant”. Further, the “potency against SMO-E518K (inhibition of Gli-luciferase activity)” value in data set [2] is reported as “completely resistant”.
Regarding `CS(=O)(=O)c1ccc(C(=O)Nc2ccc(Cl)c(-c3ccccn3)c2)c(Cl)c1` [GDC-0449], the “resistance of SMO-E518A to the inhibitor, Gli-luciferase reporter activity” value in data set [5] was “partially resistant”. The “resistance of SMO-E518K to the inhibitor, Gli-luciferase reporter activity” value in data set [2] (dose response, up to 1 μM) is “completely resistant”. Also, in data set [6], the “clinical response to treatment” value was “dramatic and rapid response”.
One may read the half-life as the time in which the quantity being followed falls by half. A higher half-life goes with slow decline. Consider `C[C@@H]1CN(c2ccc(C(=O)Nc3ccc(Cl)c(NC(=O)c4cccc(Cl)c4)c3)cn2)C[C@H](C)N1` [compound 5], for which the “pharmacokinetic properties in mice” value in data set [7] was “good pharmacokinetic properties”. This molecule showed a half-life in data set [7] (mouse, single oral 100 mg kg-1 dose, plasma) of 22 h. Moreover, in data set [1] (1 μM compound, C3H10T½ cells), the “potency against SMO-D473H (inhibition of Gli-luciferase activity)” value is “potent; also recorded: improved potencies”. The “potency against SMO-E518K (inhibition of Gli-luciferase activity)” value in data set [2] (1 μM compound, C3H10T½ cells) is given as “potent”.
Regarding `O=C(Nc1ccc(Cl)c(NC(=O)c2cccc(Cl)c2)c1)c1ccc(N2CCC(O)CC2)nc1` [compound 4], in data set [7], the “pharmacokinetic properties in mice” value is listed as “good pharmacokinetic properties”. The “potency against SMO-D473H (inhibition of Gli-luciferase activity)” value in data set [1] (1 μM compound, C3H10T½ cells) is reported as “potent; also recorded: improved potencies”. In addition, in data set [2] (1 μM compound, C3H10T½ cells), the “potency against SMO-E518K (inhibition of Gli-luciferase activity)” value is given as “potent”.
